The values that follow come from US4666936A, “Amide derivatives of 2-(p-aminobenzyl)-butyric acid and esters thereof having hypolipidemizing activity” (Medosan Industrie Biochimiche Riunite S.p.A., priority 1984, dated 1987).

SMILES strings stand for the structures. “Also recorded” adds a separate entry of the source.

The subject of data set [1] is cholesterol and triglycerides. As to conditions: literature, prior art; cited from earlier work.
The subject of data set [2] is hematic levels of triglycerides and total cholesterol. Description: Hypolipidemizing activity in rat made hyperlipidemic by Triton WR-1339. It counts as in vivo, rat (male Wistar). As to conditions: 500 mg/kg per os; for Total cholesterol, % mg / Triglycerides, % mg: serum after 18 hours fasting; for Total cholesterol, % variation / Triglycerides, % variation: vs carrier. The method, then:
(§1) The preparations administered "in vivo" by oral route, comprise a 0.5% suspension of carboxymethylcellulose in a neutral pH normal physiological saline for the compounds (3), (4) and (5), while for the compounds (2) and (6) the preparation comprises a solution in NaOH (0.1N) at pH 7-7.5. The hypolipidemizing activity of the substances under test was evaluated as the ability to decrease the hematic levels of triglycerides and total cholesterol in animals made hyperlipidemic by administration of Triton (antihyperlipidemic agents, J. N. Moss, Screening Methods in Pharmacology,Ed. Robert A. Turner and P. Hebborn, volume II, Academic Press, pages 121-143). The test was carried out on two animal species: rat and mouse. Male Wistar rats and Swiss mice were used, held at a normal diet, the former weighing 200-260 g, the latter weighing about 26-30 g. The compounds (2), (3), (4), (5) and (6) and the Bezafibrate and Clofibrate of control were administered per os at a dose of 500 mg/kg, simultaneously with a 10% solution in normal saline of Triton WR-1339 endoperitoneally at a rate of 2 ml/kg body weight. After treatment, the animals were divided into lots of eight, and held fasting for 18 hours and then sacrificed. The hematic levels of triglycerides total cholesterol are measured on the serum by enzymatic methods (Test-Combination Triglycerides, Boehring Mannheim GmbH) and colorimetric methods (Test-Combination Cholesterol, Boehring Mannheim GmbH). The results on the hypolipidemizing activity of the compounds under test in rat and mouse are referred in tables I and II.

For data set [3] the test system is unchanged. As to the kind of experiment: Hypolipidemizing activity in mouse made hyperlipidemic by Triton WR-1339. As to conditions: 500 mg/kg per os; for Total cholesterol, % mg / Triglycerides, % mg: serum after 18 hours fasting; for Total cholesterol, % variation / Triglycerides, % variation: vs carrier. The class given is in vivo, mouse (Swiss). The method, then:
as §1

For data set [4] the following is noted: mouse, os; value as reported in literature: G. Metz et al, Arzneimittel Forschung, 27: 1173; 1977; cited from earlier work.
A short description of data set [5]: Acute toxicity (DL50) in mouse, oral route. As to conditions: in vivo, oral (os), 15 days observation. The method, then:
DL50 was evaluated after administration of the compounds (2), (3), (4), (5) and (6) alone in male albine Swiss mice weighing 27±3 g, using the oral route. The animals were held under observation by checking the mortality and pain signs, if any, for 15 days.
The DL50 values (mg/kg) are referred in table III.

Data set [6] has as its system hematic levels of cholesterol and triglycerides. Description: Pharmacological tests of hypolipidemizing activity, overall statements. It counts as in vivo, rat and mouse. As to conditions: compared with Bezafibrate and Clofibrate. The method, then:
as §1

Data set [7] has as its system hepatic enzymes involved in the biosynthesis de novo of the triglycerides. As to conditions: literature, appears to occur possibly; cited from earlier work.
Another data set deals with cholesterol. As to conditions: literature, appears to occur possibly; cited from earlier work.

Turning to `Cc1ccc(C)n1-c1ccc(CC(=O)Nc2nccs2)cc1`, the “hypolipidemizing activity (in words)” value in data set [1] is recorded as “hypolipidemizing activity lower than that of Bezafibrate”.
On to `CC(C)(Oc1ccc(CCNC(=O)c2ccc(Cl)cc2)cc1)C(=O)O` [Bezafibrate, reference compound], for which, in data set [2], the “Total cholesterol, % mg” value is given as 210 % mg; the “Triglycerides, % mg” value is given as 415 % mg; the “Total cholesterol, % variation” value is given as -22%; the “Triglycerides, % variation” value is on record as -20%. For the same compound, the “hypolipidemizing activity (in words)” value in data set [1] was “ability to decrease the hematic levels of cholesterol and triglycerides”. Also, in data set [3], the “Total cholesterol, % mg” value turned out to be 139 % mg; the “Triglycerides, % mg” value is recorded as 100 % mg; the “Total cholesterol, % variation” value was -33%; the “Triglycerides, % variation” value is reported as -32%.
On to `CCOC(=O)C(C)(C)Oc1ccc(Cl)cc1` [Clofibrate, reference compound], for which, in data set [2], the “Total cholesterol, % mg” value was determined as 218 % mg; the “Triglycerides, % mg” value is 420 % mg; the “Total cholesterol, % variation” value was -19%; the “Triglycerides, % variation” value is recorded as -19%. In addition, the “hypolipidemizing activity (in words)” value in data set [1] is “ability to decrease the hematic levels of cholesterol and triglycerides”. In addition, in data set [3], the “Total cholesterol, % mg” value is recorded as 152 % mg; the “Triglycerides, % mg” value is on record as 115 % mg; the “Total cholesterol, % variation” value is recorded as -27%; the “Triglycerides, % variation” value is reported as -22%. Further, the DL50 in data set [4] is reported as 1280 mg/kg.
Regarding `CCC(Cc1ccc(N2C(=O)c3ccccc3C2=O)cc1)C(=O)O` (stereo not shown) [Compound (2), 2-(p-phthalimidobenzyl)-butyric acid], in data set [5], the median lethal dose (LD50) was over 2000 mg/kg. Also, in data set [2], the “Total cholesterol, % mg” value was 176 % mg; the “Triglycerides, % mg” value worked out at 360 % mg; the “Total cholesterol, % variation” value is given as -35%; the “Triglycerides, % variation” value is recorded as -31%. Further, in data set [3], the “Total cholesterol, % mg” value was 130 % mg; the “Triglycerides, % mg” value worked out at 60 % mg; the “Total cholesterol, % variation” value is given as -38%; the “Triglycerides, % variation” value was -59%. The “hypocholesterolemizing and hypolipidemizing activity (in words)” value in data set [6] is “interesting ability to decrease the hematic levels of cholesterol and triglycerides; also recorded: particularly high hypocholesterolemizing and hypolipidemizing activity”.
In turn, `CCOC(=O)C(CC)Cc1ccc(N2C(=O)c3ccccc3C2=O)cc1` (stereo not shown) [Compound (3), 2-(p-phthalimidobenzyl)-butyric acid ethyl ester] showed an LD50 in data set [5] of over 1700 mg/kg. Moreover, in data set [2], the “Total cholesterol, % mg” value came to 189 % mg; the “Triglycerides, % mg” value is 390 % mg; the “Total cholesterol, % variation” value is on record as -30%; the “Triglycerides, % variation” value is given as -25%. In addition, in data set [3], the “Total cholesterol, % mg” value is 140 % mg; the “Triglycerides, % mg” value is reported as 64 % mg; the “Total cholesterol, % variation” value is -33%; the “Triglycerides, % variation” value is -56%. For the same compound, in data set [6], the “hypocholesterolemizing and hypolipidemizing activity (in words)” value was “interesting ability to decrease the hematic levels of cholesterol and triglycerides; also recorded: particularly high hypocholesterolemizing and hypolipidemizing activity”.
For the compound `CCOC(=O)C(CC)Cc1ccc(NC(=O)c2ccc(Cl)cc2)cc1` (stereo not shown) [Compound (4), 2-[4-(p-chlorobenzamido)-benzyl]-butyric acid ethyl ester], the 50% lethal dose (LD50) in data set [5] is over 2000 mg/kg. For the same compound, in data set [2], the “Total cholesterol, % mg” value is given as 200 % mg; the “Triglycerides, % mg” value worked out at 400 % mg; the “Total cholesterol, % variation” value is -26%; the “Triglycerides, % variation” value was -23%. Also, in data set [3], the “Total cholesterol, % mg” value came to 129 % mg; the “Triglycerides, % mg” value came out at 90 % mg; the “Total cholesterol, % variation” value is reported as -38%; the “Triglycerides, % variation” value was -39%. For the same compound, the “hypocholesterolemizing and hypolipidemizing activity (in words)” value in data set [6] was “interesting ability to decrease the hematic levels of cholesterol and triglycerides; also recorded: particularly high hypocholesterolemizing and hypolipidemizing activity”.
Compound `CCOC(=O)C(CC)Cc1ccc(NC(=O)Cc2ccc(-n3cccc3)cc2)cc1` (stereo not shown) [Compound (5), 2-{4-[4-(1-pyrryl)-phenylacetamido]-benzyl}-butyric acid ethyl ester] gave an LD50 in data set [5] of over 2000 mg/kg. In data set [2], the “Total cholesterol, % mg” value is given as 205 % mg; the “Triglycerides, % mg” value worked out at 410 % mg; the “Total cholesterol, % variation” value is -24%; the “Triglycerides, % variation” value is -21%. In data set [3], the “Total cholesterol, % mg” value was determined as 130 % mg; the “Triglycerides, % mg” value is listed as 80 % mg; the “Total cholesterol, % variation” value was -38%; the “Triglycerides, % variation” value was -45%. Further, the “hypocholesterolemizing and hypolipidemizing activity (in words)” value in data set [6] is “interesting ability to decrease the hematic levels of cholesterol and triglycerides; also recorded: particularly high hypocholesterolemizing and hypolipidemizing activity”.
Consider `CCC(Cc1ccc(NC(=O)c2ccccc2C(=O)O)cc1)C(=O)O` (stereo not shown) [Compound (6), 2-(p-phthalylaminobenzyl)-butyric acid], for which the LD50 in data set [5] is over 2000 mg/kg. Besides, in data set [2], the “Total cholesterol, % mg” value is reported as 180 % mg; the “Triglycerides, % mg” value worked out at 380 % mg; the “Total cholesterol, % variation” value is -32%; the “Triglycerides, % variation” value is given as -28%. Further, in data set [3], the “Total cholesterol, % mg” value is given as 130 % mg; the “Triglycerides, % mg” value is listed as 64 % mg; the “Total cholesterol, % variation” value is listed as -38%; the “Triglycerides, % variation” value was -56%. In addition, the “hypocholesterolemizing and hypolipidemizing activity (in words)” value in data set [6] is “interesting ability to decrease the hematic levels of cholesterol and triglycerides; also recorded: particularly high hypocholesterolemizing and hypolipidemizing activity”.
Take `CC(C)OC(=O)C(C)(C)Oc1ccc(C(=O)c2ccc(Cl)cc2)cc1` [Procetofene]: the “hypolipidemizing activity (in words)” value in data set [1] is “hypolipidemizing activity lower than that of Bezafibrate”.
In the case of `CC(=O)c1ccccc1N1C(=O)c2ccccc2C1=O` [o-(N-phthalimido)acetophenone], the “hypolipidemizing activity (in words)” value in data set [1] is “more active than Clofibrate in reducing the serum cholesterol percentage and the triglyceride level”. In addition, in data set [7], the “inhibiting activity in vivo on hepatic enzymes” value is listed as “inhibiting activity in vivo”. In addition, in the data set with cholesterol, the “cholesterol absorption at the intestinal level” value is “decrease the cholesterol absorption at the intestinal level” and the “excretion of cholesterol with the bile” value was “speed up the excretion of cholesterol with the bile”.
Regarding `O=C1NC(=O)c2ccccc21` [phthalimide], in data set [1], the “hypolipidemizing activity (in words)” value is “hypocholesterolemizing activity”.

What is called LD50 is the dose at which mortality reaches 50%. Low values mean greater toxicity, high ones lower toxicity.
